Measurements taken from US10149887B2, “Peptides and peptidomimetics in combination with t cell activating and/or checkpoint inhibiting agents for cancer treatment” (CanBas Co., Ltd., priority 2015, dated 2018).
Square brackets hold non-standard residues; d marks the D form. Ends that are not written are not given here. Peptide text beside a SMILES is read from it. dPhe(4-NO2) = N[C@H](Cc1ccc([N+](=O)[O-])cc1)C(=O)O; dPhe(F5) = N[C@H](Cc1c(F)c(F)c(F)c(F)c1F)C(=O)O; dBpa = N[C@H](Cc1ccc(C(=O)c2ccccc2)cc1)C(=O)O; dCha = N[C@H](CC1CCCCC1)C(=O)O; Aun = NCCCCCCCCCCC(=O)O

What was measured:
[1] = Human serum treatment analysis (residual G2 checkpoint abrogating activity); type: in vitro ADME; conditions: 37 degrees
Method: Serum analysis was performed to determine the stability of peptides in mouse and human serum. Briefly, peptides (10 mM or 2.5 mM) were incubated with freshly prepared human serum at 37 degrees for 1 hr. […] Jurkat cells were treated with the serum with or without peptides and bleomycin (40 μg/ml) and incubated for 24 hr. The population of G2 phase cells was determined by flow cytometry as previously described. The residual G2 checkpoint abrogating activity of serum treated peptides were determined by comparing the % G2 cells of the treated serum and the standard curve produced with medium treated peptides, bleomycin and Jurkat cells (Table 5A).

[2] = system: Jurkat cells; test: Side effect of peptide used alone: Jurkat cell cycle disturbance (flow cytometry); type: cell-based; conditions: dose that produced Jurkat cell cycle disturbance, peptide alone
Method: Cell-cycle analysis The cell cycle status of the cells treated with bleomycin or adriamcin were analyzed by flow cytometry as described by Kawabe (1997) Nature 385:454-458. In brief, two million cells were re-suspended and incubated in 200 μl Krishan's solution (0.1% Sodium citrate, 50 μg/ml PI, 20 μg/ml RNase A and 0.5% NP-40) for 1 hr at 4° C. and analyzed by a flow cytometry, FACScan™ (Beckton Dickinson, Mountain View, Calif.) with the program CELLQuest™ (Beckton Dickinson).
(§1) The “Appearance of side effect when used alone” indicates the peptide/peptidomimetic dose that produced Jurkat cell cycle disturbance, i.e., the appearance of significant amounts of SubG1 cells (dead cells) or cells in which the DNA content of each varies more than usual. […] The “G2 abrogating dose” indicates the peptide/peptidomimetic dose with 40 μg/ml bleomycine that produced detectable G2 checkpoint abrogation activity following treatment for 24 hours. The “Appearance of side effect when used with colchicine” indicates the peptide/peptidomimetic dose with 5 μg/ml colchicine that produced Jurkat cell cycle disturbance following treatment for 24 hours.

[3] = system: Jurkat cells; test: G2 checkpoint abrogation, flow cytometry of bleomycin treated Jurkat cells; type: cell-based, human; conditions: for G2 abrogating dose: dose with 40 μg/ml bleomycine giving detectable G2 checkpoint abrogation, 24 hours; for G2 checkpoint abrogating activity (in words): Jurkat cells with bleomycin 40 μg/ml
Method: Flow cytometry analysis of G2 checkpoint abrogation was performed using human leukemia derived Jurkat cell line. In brief, cultured cells were treated with various doses of peptide/peptidomimetic and 40 μg/ml bleomycine for 24 hr. The DNA of the cells was stained with propidium iodide and analyzed by flow cytometry.
The G2 checkpoint abrogating activity of various arginine rich sequences at different doses on cells treated with bleomycine was studied. Briefly, peptides were added to culture medium of Jurkat cells with bleomycin (40 μg/ml) at 0.2 μg/ml, 0.39 μg/ml, 0.78 μg/ml, 1.56 μg/ml, 3.125 μg/ml, 6.25 μg/ml, 12.5 μg/ml, 25 μg/ml and 50 μg/ml. Cells were subsequently harvested after 24 hours, stained with Krishan's solution, and analyzed with flow cytometry as previously described.

[4] = system: Jurkat cells; test: M phase checkpoint abrogation / non specific toxicity, colchicine treated Jurkat cells; type: cell-based; conditions: dose with 5 μg/ml colchicine that produced Jurkat cell cycle disturbance, 24 hours
Method: Flow cytometry analysis of M phase checkpoint abrogation by the compounds was performed using human T cell leukemia Jurkat cell line treated with colchicine (5 μg/ml or 0.5 μg/ml) and various doses of peptide/peptidomimetics for 24 hr (FIG. 12). The DNA of the cells was stained and analyzed by flow cytometry as described above.
as §1
A comparison between G2 checkpoint abrogating activity and non specific toxicity (M checkpoint abrogation) by CB501 was performed. In brief, Jurkat cells were treated with 40 μg/ml bleomycin or 0.5 μg/ml colchicine for G2 checkpoint abrogating activity and non specific toxicity, respectively. The DNA amount in each of the treated cells was analyzed by flow cytometry, as previously described.

[5] = molecular target: T1, recombinant human full length Chk1 (Homo sapiens, UniProt O14757); test: In vitro kinase inhibition (CycLex), phosphorylation of serine 216 on GST-Cdc25C; type: biochemical
T1 construct: baculovirus derived recombinant human full length Chk1 with histidine tag; histidine tag; host or cells: baculovirus system (insect cells) for Chk1; E. coli for the GST-Cdc25C substrate
T1 sequence (O14757 1-476): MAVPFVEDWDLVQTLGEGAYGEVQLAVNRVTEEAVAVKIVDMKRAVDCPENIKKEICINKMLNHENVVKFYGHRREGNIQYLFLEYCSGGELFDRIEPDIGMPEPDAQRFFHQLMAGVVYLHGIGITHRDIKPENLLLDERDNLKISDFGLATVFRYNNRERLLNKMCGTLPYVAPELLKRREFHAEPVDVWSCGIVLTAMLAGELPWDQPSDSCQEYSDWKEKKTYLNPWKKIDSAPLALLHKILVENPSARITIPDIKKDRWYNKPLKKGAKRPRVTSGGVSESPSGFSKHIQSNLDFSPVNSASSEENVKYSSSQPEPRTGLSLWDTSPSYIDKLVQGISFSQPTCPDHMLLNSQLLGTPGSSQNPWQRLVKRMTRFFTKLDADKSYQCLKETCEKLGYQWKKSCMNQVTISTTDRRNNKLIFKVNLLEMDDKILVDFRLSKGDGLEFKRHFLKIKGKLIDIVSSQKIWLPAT
Method: (§2) In vitro kinase inhibition analysis was performed by CycLex, Co. Ltd., Nagano, Japan. Briefly, baculovirus derived recombinant human full length Chk1 with histidine tag or E. Coli derived recombinant human full length Chk2 fused with GST were used as kinases. E. Coli derived recombinant GST-Cdc25C (amino acis 167-267) was used as a substrate. Reaction conditions were 20 mM Hepes-KOH (pH7.5), 1 mM DTT, 80 μg/ml BSA, 10 mM MgCl2 and […] at 30 degree for 60 min. The phosphorylation of serine 216 on GST-Cdc25C was detected by anti-Cdc25C-phosphorylated 5216 antibody with enzyme linked immune assay.

[6] = molecular target: T2, recombinant human full length Chk2 (Homo sapiens, UniProt O96017); test: as above; type: biochemical
T2 construct: E. Coli derived recombinant human full length Chk2 fused with GST; host or cells: E. coli
T2 sequence (O96017 whole entry, the tested form may be a part): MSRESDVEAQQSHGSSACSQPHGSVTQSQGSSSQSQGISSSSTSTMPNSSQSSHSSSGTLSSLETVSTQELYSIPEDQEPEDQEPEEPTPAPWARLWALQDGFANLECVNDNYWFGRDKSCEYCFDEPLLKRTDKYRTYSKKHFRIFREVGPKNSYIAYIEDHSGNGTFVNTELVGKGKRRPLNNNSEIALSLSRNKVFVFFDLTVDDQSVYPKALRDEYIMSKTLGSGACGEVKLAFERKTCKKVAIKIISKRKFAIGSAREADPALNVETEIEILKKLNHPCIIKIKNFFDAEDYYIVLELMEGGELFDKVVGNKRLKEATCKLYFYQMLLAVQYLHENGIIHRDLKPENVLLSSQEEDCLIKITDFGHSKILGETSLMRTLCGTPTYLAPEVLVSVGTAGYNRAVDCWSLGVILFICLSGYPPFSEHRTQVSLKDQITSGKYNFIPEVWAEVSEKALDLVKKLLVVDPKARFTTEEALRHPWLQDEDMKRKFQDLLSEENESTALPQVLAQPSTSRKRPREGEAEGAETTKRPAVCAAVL
Method: as §2

| Molecule | Appearance of side effect when used alone [2] | Appearance of side effect when used with Colchicine [4] | IC50 [5] | IC50 [6] | G2 checkpoint abrogating activity (in words) [3] | also measured |
| --- | --- | --- | --- | --- | --- | --- |
| N=C(N)NCCC[C@H](NC(=O)CNC(=O)[C@@H](N)Cc1ccc(O)cc1)C(=O)N[C@@H](CCCCN)C(=O)N[C@@H](CCCCN)C(=O)N[C@@H](CCCNC(=N)N)C(=O)N[C@@H](CCCNC(=N)N)C(=O)N[C@@H](CCC(N)=O)C(=O)N[C@@H](CCCNC(=N)N)C(=O)N[C@@H](CCCNC(=N)N)C(=O)N[C@@H](CCCNC(=N)N)C(=O)N[C@@H](CC1CCCCC1)C(=O)N[C@@H](Cc1c(F)c(F)c(F)c(F)c1F)C(=O)N[C@@H](CCCNC(=N)N)C(=O)N[C@@H](CO)C(=O)N1CCC[C@H]1C(=O)N[C@@H](CO)C(=O)N[C@@H](Cc1ccc(O)cc1)C(=O)N[C@@H](Cc1ccc(O)cc1)C(=O)O [CBP413, (1-Tyr)(1-Gly)(1-Arg)(1-Lys)(1-Lys)(1-Arg)(1-Arg)(1-Gln)(1-Arg)(1-Arg)(1-Arg)(1-Cha)(1-Phe-2,3,4,5,6-F)(1-Arg)(1-Ser)(1-Pro)(1-Ser)(1-Tyr)(1-Tyr)] | >25 µM | >25 µM | – | – | – | Residual activity of peptide after 1 hr human serum treatment [1]: <0.4% of original; G2 abrogating dose [3]: ≥1.56 µM |
| N=C(N)NCCC[C@@H](NC(=O)[C@@H](CCCCN)NC(=O)[C@@H](CCCCN)NC(=O)[C@@H](CCCNC(=N)N)NC(=O)[C@@H](CCCNC(=N)N)NC(=O)[C@@H](CCC(N)=O)NC(=O)[C@@H](CCCNC(=N)N)NC(=O)[C@@H](CCCNC(=N)N)NC(=O)[C@@H](CCCNC(=N)N)NC(=O)[C@@H](CC1CCCCC1)NC(=O)[C@@H](Cc1c(F)c(F)c(F)c(F)c1F)NC(=O)CCCCCCCCCCN)C(=O)NCC(=O)N[C@H](Cc1ccc(O)cc1)C(=O)O [CBP463, (1-aminoundecanoic acid)(d-Phe-2,3,4,5,6-F)(d-Cha)(d-Arg)(d-Arg)(d-Arg)(d-Gln)(d-Arg)(d-Arg)(d-Lys)(d-Lys)(d-Arg)(1-Gly)(d-Tyr)] (H-[Aun][dPhe(F5)][dCha][dR][dR][dR][dQ][dR][dR][dK][dK][dR]G[dY]-OH; N-terminus and C-terminus assumed) | >6.25 µM | >6.25 µM | – | – | – | – |
| N=C(N)NCCC[C@@H](NC(=O)[C@@H](CCCNC(=N)N)NC(=O)[C@@H](CCC(N)=O)NC(=O)[C@@H](CCCNC(=N)N)NC(=O)[C@@H](CCCNC(=N)N)NC(=O)[C@@H](CCCNC(=N)N)NC(=O)[C@@H](CC1CCCCC1)NC(=O)[C@@H](Cc1c(F)c(F)c(F)c(F)c1F)NC(=O)[C@@H](CO)NC(=O)[C@@H](Cc1c[nH]c2ccccc12)NC(=O)[C@@H](CO)NC(=O)[C@@H](Cc1ccc(C(=O)c2ccccc2)cc1)NC(=O)[C@H](N)Cc1ccc(O)cc1)C(=O)O [CBP500, (d-Tyr)(d-Bpa)(d-Ser)(d-Trp)(d-Ser)(d-Phe-2,3,4,5,6-F)(d-Cha)(d-Arg)(d-Arg)(d-Arg)(d-Gln)(d-Arg)(d-Arg)] (H-[dY][dBpa][dS][dW][dS][dPhe(F5)][dCha][dR][dR][dR][dQ][dR][dR]-OH; N-terminus and C-terminus assumed) | >50 µM | >12.5 µM | 5.6 µM | 8 µM | – | G2 abrogating dose [3]: ≥0.39 µM |
| N=C(N)NCCC[C@@H](NC(=O)[C@@H](CCCNC(=N)N)NC(=O)[C@@H](CCC(N)=O)NC(=O)[C@@H](CCCNC(=N)N)NC(=O)[C@@H](CCCNC(=N)N)NC(=O)[C@@H](CCCNC(=N)N)NC(=O)[C@@H](CC1CCCCC1)NC(=O)[C@@H](Cc1c(F)c(F)c(F)c(F)c1F)NC(=O)[C@@H](CO)NC(=O)[C@@H](Cc1c[nH]c2ccccc12)NC(=O)[C@@H](CO)NC(=O)[C@@H](CC(=O)O)NC(=O)[C@H](N)Cc1ccc(C(=O)c2ccccc2)cc1)C(=O)O [CBP505, (d-Bpa)(d-Asp)(d-Ser)(d-Trp)(d-Ser)(d-Phe-2,3,4,5,6-F)(d-Cha)(d-Arg)(d-Arg)(d-Arg)(d-Gln)(d-Arg)(d-Arg)] (H-[dBpa][dD][dS][dW][dS][dPhe(F5)][dCha][dR][dR][dR][dQ][dR][dR]-OH; N-terminus and C-terminus assumed) | – | – | 63.4 µM | > 100 µM | – | – |
| N=C(N)NCCC[C@@H](NC(=O)[C@@H](CCCNC(=N)N)NC(=O)[C@@H](CCC(N)=O)NC(=O)[C@@H](CCCNC(=N)N)NC(=O)[C@@H](CCCNC(=N)N)NC(=O)[C@@H](CCCNC(=N)N)NC(=O)[C@@H](CC1CCCCC1)NC(=O)[C@@H](Cc1ccc([N+](=O)[O-])cc1)NC(=O)[C@@H](CO)NC(=O)[C@@H](Cc1c[nH]c2ccccc12)NC(=O)[C@@H](CO)NC(=O)[C@H](N)Cc1ccc(C(=O)c2ccccc2)cc1)C(=O)O [CBP603, (d-Bpa)(d-Ser)(d-Trp)(d-Ser)(d-Phe4No2)(d-Cha)(d-Arg)(d-Arg)(d-Arg)(d-Gln)(d-Arg)(d-Arg)] (H-[dBpa][dS][dW][dS][dPhe(4-NO2)][dCha][dR][dR][dR][dQ][dR][dR]-OH; N-terminus and C-terminus assumed) | – | – | 15.5 µM | 18.1 µM | – | Residual activity of peptide after 1 hr human serum treatment [1]: >50% of original |
| (d-Arg)(d-Arg)(d-Arg)(d-Arg)(d-Bpa)(d-Arg)(d-Trp)(d-Arg)(d-Phe-2,3,4,5,6-F)(d-Cha) ([dR][dR][dR][dR][dBpa][dR][dW][dR][dPhe(F5)][dCha]) [CBP702] | – | – | – | – | retain G2 checkpoint abrogating activity comparable to other peptides having significant G2 checkpoint abrogating activity | – |
| (d-Arg)(d-Arg)(d-Arg)(d-Bpa)(d-Arg)(d-Arg)(d-Arg)(d-Phe-2,3,4,5,6-F)(d-Cha) ([dR][dR][dR][dBpa][dR][dR][dR][dPhe(F5)][dCha]) [CBP703] | – | – | – | – | retain G2 checkpoint abrogating activity comparable to other peptides having significant G2 checkpoint abrogating activity | – |
| (d-Arg)(d-Arg)(d-Arg)(d-Bpa)(d-Arg)(d-Trp)(d-Arg)(d-Phe-2,3,4,5,6-F)(d-Cha) ([dR][dR][dR][dBpa][dR][dW][dR][dPhe(F5)][dCha]) [CBP701] | – | – | – | – | retain G2 checkpoint abrogating activity comparable to other peptides having significant G2 checkpoint abrogating activity | – |
| (d-Arg)(d-Arg)(d-Bpa)(d-Arg)(d-Arg)(d-Arg)(d-Phe-2,3,4,5,6-F)(d-Cha) ([dR][dR][dBpa][dR][dR][dR][dPhe(F5)][dCha]) [CBP700] | – | – | – | – | retain G2 checkpoint abrogating activity comparable to other peptides having significant G2 checkpoint abrogating activity | – |
